The values below come from patent US8008461B2, “Carbonyl reductase, gene therefor and use thereof” (Kaneka Corporation, priority 2004, dated 2011).

The test system of this test is purified polypeptide (carbonyl reductase). Briefly: Substrate specificity of polypeptide (NADPH-dependent reduction of carbonyl compounds). In kind it is biochemical, Candida magnoliae strain NBRC0661. Conditions: 1 mM substrate, 0.25 mM NADPH, pH 6.5, 30° C.; relative to activity to 3-oxo-3-phenylpropanenitrile.

Take `CCC(=O)Cc1ccccc1` [1-phenyl-2-butanone]: the Relative activity is 1144%. On to `CC(=O)c1ccccn1` [2-acetylpyridine], for which the Relative activity is listed as 1926%. In the case of `CCC(C)=O` [2-butanone] it was 181%. In the case of `O=C(CCl)c1cccc(Cl)c1` [2-chloro-1-(3′-chlorophenyl)ethanone] it was 10473%; in that of `CCCCCC(C)=O` [2-heptanone], 782%; in that of `CCCCC(C)=O` [2-hexanone], 602%. `O=C(CO)c1ccccc1` [2-hydroxyacetophenone]: the Relative activity was determined as 1806%. As for `CCC(=O)C(=O)O` [2-keto-n-butyric acid], the figure is 1866%; as for `COc1ccc(C(C)=O)cc1OC` [3,4-dimethoxyacetophenone], 2889%; as for `CC(=O)c1cccnc1` [3-acetylpyridine], 2107%. As for `N#CCC(=O)c1ccccc1` [3-oxo-3-phenylpropanenitrile], the figure is 100%; as for `CC(=O)c1ccncc1` [4-acetylpyridine], 15710%.

As to `CC(=O)CCO` [4-hydroxy-2-butanone], the Relative activity came out at 301%.

Turning to `CC(=O)CC(C)C` [4-methyl-2-pentanone], the Relative activity turned out to be 60%. `CC(=O)c1ccccc1` [acetophenone]: the Relative activity is on record as 1023%. In the case of `CC(=O)CC(=O)OCc1ccccc1` [benzyl acetoacetate] it was 4936%; in that of `CC(=O)CCc1ccccc1` [benzylacetone], 241%; in that of `CC(=O)C1CC1` [cyclopropyl methyl ketone], 181%. As for `CCOC(=O)CC(=O)CCl` [ethyl 4-chloroacetoacetate], the figure is 8547%; as for `CCOC(=O)CC(C)=O` [ethyl acetoacetate], 903%; as for `CCOC(=O)CC(=O)c1ccccc1` [ethyl benzoylacetate], 7704%. As for `CC(=O)CO` [hydroxyacetone], the figure is 361%. Turning to `CC(=O)c1cccc([N+](=O)[O-])c1` [m-nitroacetophenone], the Relative activity is given as 5056%. In the case of `COC(=O)C(C)=O` [methyl pyruvate] it was 9450%; in that of `O=C(O)CC(=O)C(=O)O` [oxalacetic acid], 421%. Consider `CC(=O)c1ccc(Cl)cc1` [p-chloroacetophenone], for which the Relative activity was found to be 2347%. In the case of `CC(=O)c1ccc(F)cc1` [p-fluoroacetophenone] it was 722%. As for `CC(=O)c1ccc(C)cc1` [p-methylacetophenone], the figure is 542%; as for `CCC(=O)c1ccccc1` [propiophenone], 3010%.
